According to patent publication US5637619A, “Antitumor 2-aminocarbonyl-1, 2-bis(methylsulfonyl)-1-(substituted)hydrazines” (Yale University, priority 1995, dated 1997):
Read-outs that look alike come from different tables or passages of the source.

Assays:
liver microsomal enzymes = details: NADPH-dependent; cited from earlier work
[1] = system: M5076 reticulum cell sarcoma; assay: M5076 reticulum cell sarcoma, sc implanted; format: in vivo, C57BL/6 mice; details: iv every fourth day × 3 (same treatment schedule as MeCCNU)
Procedure: (§1) The M5076 reticulum cell sarcoma was passaged biweekly by sc transfer of tumor fragments into C57BL/6 mice, and the M109 lung carcinoma was similarly passaged in BALB/c mice. The LX-1 human lung carcinoma was passaged sc every two to three weeks in BALB/c-background athymic (nu/nu) mice. For use in these systems, compound III was dissolved in: (a) 100% DMSO and administered by iv injection in a fixed volume of 10 microliters; or (b) DMSO diluted with saline to a final concentration of 10% DMSO and administered iv in a volume of 0.01 milliliter/g of body weight. […] Mitomycin C and cyclophosphamide were dissolved and administered in saline. BCNU and MeCCNU were dissolved in ethanol and diluted 1:9 (v/v) with water prior to administration.
(§2) Five mice per group were employed in experiments with the B16F10 melanoma, and 8 mice per group with the M5076 sarcoma, the M109 carcinoma and the LX-1 carcinoma. A minimum of two dose levels per compound were included in each evaluation and drug therapy was initiated 24 h after tumor implantation for the M5076 sarcoma and M109 carcinoma. In the LX-1 experiment, tumor bearing mice were selected and sorted into treatment and control groups on day 6 post-tumor implant such that all tumor weights ranged from 50-100 mg and median tumor weights per group were reasonably similar. Therapeutic results are presented in terms of: (a) increases in lifespan reflected by the relative median survival time (MST) of treated versus control groups (i.e., %T/C values), and by long-term survivors, and (b) primary tumor growth inhibition (i.e., T-C values) determined by calculating the relative median times for treated (T) and control untreated (C) mice to grow tumors of a 0.5 g size for the LX-1 carcinoma or a 1 g size for the murine neoplasms. Tumor weights were interchangeable with tumor size on the basis of 1 mm^3 =1 mg. […] The activity criterion for tumor inhibition was a delay in tumor growth consistent with one log10 cell kill (LCK). The absolute T-C value needed to attain this level of efficacy varied from experiment to experiment and depended upon the tumor volume doubling time of the control mice in each study. Treated mice dying prior to day 10 in the ip M109 experiment, or dying before their tumors achieved 0.5 g for the LX-1 carcinoma or 1 g in size for all other sc tumor models, were considered to have died from drug toxicity. Groups of mice with more than one death due to drug toxicity were not used in the evaluation of antitumor efficacy. Statistical evaluations of data were performed using Gehan's generalized Wilcoxan test (Gehan, Biometrika, 1965, 52, 203-233).
Compound III was also evaluated against the M5076 reticulum cell sarcoma implanted sc. When administered iv at a level of 48 mg/kg per injection in 100% DMSO every other day for five days, compound III cured 6 out of 8 mice and consequently, no median time (T-C value) to reach 1 gram size tumors was expressed for this group. Tumor growth in mice receiving only 100% DMSO was indistinguishable from that of untreated control animals. 1-(2-Chloroethyl)-3-(4-methylcyclohexyl)-1-nitrosourea (MeCCNU) and BCNU were included in this experiment for comparison. The former achieved a maximum %T/C of 128 and a delay in tumor growth of 33.5 days at 16 mg/kg per injection administered iv every fourth day for three total injections, while BCNU, administered iv on the same treatment schedule, produced a %T/C in excess of 157, with 2 out of 8 cures, and a T-C of >62 days (data not shown).

glutathione reductase = details: cited from earlier work
[2] = system: glutathione S-transferase mu isoenzymes; details: human isoenzymes; cited from earlier work
[3] = system: glutathione S-transferase mu isoenzymes; details: rat isoenzymes; cited from earlier work
[4] = system: LX-1 human lung carcinoma; assay: LX-1 human lung carcinoma xenograft, sc in athymic mice; format: in vivo, human tumor in athymic (nu/nu) mice; details: 20 mg/kg per injection (optimum), iv every fourth day × 3
Procedure: as §1, §2
The human lung tumor, LX-1, xenografted sc in athymic mice, was also used to examine the antineoplastic potential of compound III. […]

ribonucleotide reductase = details: cited from earlier work
thioredoxin reductase = details: cited from earlier work
[5] = system: NADPH:cytochrome P450 reductase; details: cited from earlier work
[6] = system: mammary MX-1 human tumor xenografts; details: subrenal capsule, athymic mice; cited from earlier work
[7] = system: colon CX-1 human tumor xenografts; details: subrenal capsule, athymic mice; cited from earlier work
L1210 leukemia = L1210 leukemia survival time in mice (ip implanted); format: in vivo, mice (CD2F1)
Procedure: (§3) Leukemia L1210 cells were obtained from the Frederick Cancer Research Facility, Division of Cancer Treatment Tumor Repository of the National Cancer Institute, and were maintained by serial passage in tissue culture. Every 8 weeks, tumor cells were injected intraperitoneally into five donor CD2 F1 mice 8- to 10- weeks of age and were allowed to grow for 7 days. The peritoneal fluid was withdrawn and the suspension was centrifuged for 5 min at 1600 g. The supernatant was decanted and 10^5 cells/mL were seeded into 10 mL of RPMI 1640 medium supplemented with 10% fetal bovine serum and 1% L-glutamine, and once again maintained in culture. To assay for antineoplastic activity, 0.1 mL of the cell suspension containing 10^5 L1210 leukemia cells was injected ip into each recipient mouse. Test compounds were administered over a wide range of dosage levels, beginning 24 h after tumor implantation, and continued once daily for 6 consecutive days. All drugs were administered ip as a solution in 100% dimethylsulfoxide (DMSO), in a volume not exceeding 0.025 mL. […] Mice were weighed during the course of the experiments, and the percentage change in body weight from onset to termination of therapy was used as an indication of drug toxicity. Determination of the sensitivity of neoplasms to these agents was based upon the prolongation of survival time afforded by the drug treatments.
(§4) ^a Administered ip once daily for six consecutive days, beginning 24 hours after tumor implantation, with 5-10 mice being used per group. ^b Average percent change in body weight from onset to termination of therapy. ^c % T/C=average survival time of treated/control mice×100; cures (>60-day survivors) are listed separately and are not included in this calculation.

[8] = Body weight change / toxicity in L1210-bearing mice; format: in vivo, mice (CD2F1); details: for Av. Wt. Change %: L1210-bearing mice
Procedure: as §3, §4

B16F10 melanoma = assay: B16F10 melanoma, tumor growth delay in mice; format: in vivo, C57BL/6 mice; details: 100% DMSO
Procedure: B16F10 melanoma cells were grown in vitro as monolayers in minimum essential medium with Hank's salts supplemented with 10% fetal bovine serum and 1% 200 mM L-glutamine solution. Solid tumors were produced in C57BL/6 female mice 12- to 14-weeks of age by the intradermal injection in the right flank of each mouse of 0.1 mL of a cell suspension containing 10^6 B16F10 cells/mL from freshly trypsinized cultures. After 10-12 days, animals bearing approximately 100 mm^3 tumors were treated ip with compound III or IV dissolved in 100% DMSO for 6 consecutive days, and tumor volumes were measured on alternate days until reaching 1000 mm^3.
as §2
In addition, both compounds III and IV were evaluated in 100% DMSO against the B16F10 melanoma implanted intradermally (id) in mice (Table III). In an initial experiment, compound IV produced a T-C of 15.5 days at a daily dosage level of 20 mg/kg administered once daily for six consecutive days beginning on day 10 post-implant. In the same experiment, using the same treatment schedule, a growth delay of 11 days was obtained with compound III. […] Thus, the aminocarbonyl component in this class of agents influences the magnitude of the antitumor effects obtained against the B16F10 melanoma.

[9] = system: M5076 reticulum cell sarcoma; details: compared with compound III or BCNU; cited from earlier work
M109 lung carcinoma [10] = details: 60 mg/kg per injection, highest dosage level, ip q4d × 3; different experiment; cited from earlier work
M109 lung carcinoma [11] = details: as reported earlier (J. Med. Chem. 1993, 36, 3496); cited from earlier work
[12] = chloroethylating agent with no carbamoylating activity; cited from earlier work

Compound: O=NN(CCCl)C(=O)NCCCl [BCNU, 1,3-bis(2-chloroethyl)-1-nitrosourea]
- inactivation by denitrosation (in words) (liver microsomal enzymes): inactivated by denitrosation by liver microsomal enzymes
- %T/C [1]: > 157%
- T-C [1]: > 62 days
- cures [1]: 2 out of 8
- inhibition of glutathione reductase (in words) (glutathione reductase): inhibit glutathione reductase
- glutathione-dependent denitrosation (in words) [2]: undergo glutathione-dependent denitrosation
- glutathione-dependent denitrosation (in words) [3]: undergo glutathione-dependent denitrosation
- T-C [4]: 11.8 days
- log10 cell kill (LCK) [4]: 1.3 LCK
- inhibition of ribonucleotide reductase (in words) (ribonucleotide reductase): inhibit glutathione reductase, ribonucleotide reductase
- inhibition of thioredoxin reductase (in words) (thioredoxin reductase): inhibit glutathione reductase, ribonucleotide reductase and thioredoxin reductase

Compound: O=NN(CCCl)C(=O)NC1CCCCC1 [CCNU, 1-(2-chloroethyl)-3-cyclohexyl-1-nitrosourea]
- denitrosation (in words) [5]: catalyzed by NADPH:cytochrome P450 reductase

Compound: CNC(=O)ON(C(C)=O)C(=O)NC [Caracemide]
- antitumor activity (in words) [6]: active
- antitumor activity (in words) [7]: active

Compound: CNC(=O)N(N(CCCl)S(C)(=O)=O)S(C)(=O)=O [Compound IV, 1,2-Bis(methylsulfonyl)-1-(2-chloroethyl)-2-methylaminocarbonylhydrazine]
- % 60 Day Survivors (cures) (L1210 leukemia; 5 mg/kg ip once daily × 6): 40%
- %T/C (average survival time treated/control × 100) (L1210 leukemia; 5 mg/kg ip once daily × 6, cures not included): 234%
- % 60 Day Survivors (cures) (L1210 leukemia; 10 mg/kg ip once daily × 6): 100%
- % 60 Day Survivors (cures) (L1210 leukemia; 15 mg/kg ip once daily × 6): 100%
- antileukemic activity / therapeutic potential (in words) (L1210 leukemia; qualitative, L1210 leukemia in mice): much better therapeutic potential than the amino acid ester derivatives
- Av. Wt. Change % ([8]; 5 mg/kg ip once daily × 6): +9.9%
- body weight loss (in words) ([8]; 5 mg/kg × 6): no body weight loss
- Av. Wt. Change % ([8]; 10 mg/kg ip once daily × 6): -5.6%
- Av. Wt. Change % ([8]; 15 mg/kg ip once daily × 6): -2.1%
- loss of body weight ([8]; 10 and 15 mg/kg × 6): < 6%
- T-C (B16F10 melanoma; experiment a, 10 mg/kg/injection, qd × 6 from day 10, ip): 5.0 days
- T-C, growth delay (B16F10 melanoma; experiment a, 20 mg/kg/injection, qd × 6 from day 10, ip): 15.5 days
- T-C (B16F10 melanoma; experiment b, 20 mg/kg/injection, qd × 6 from day 12, ip): 10.0 days
- T-C, growth delay (B16F10 melanoma; experiment b, 30 mg/kg/injection, qd × 6 from day 12, ip): 25.5 days

Compound: CC(=O)N(N(CCCl)S(C)(=O)=O)S(C)(=O)=O [X]
- activity against M5076 (in words) [9]: much less active than compound III or BCNU
- %T/C (median survival time) (M109 lung carcinoma [10]): 231%
- maximum %T/C (M109 lung carcinoma [11]): 136%
- maximum T-C value (M109 lung carcinoma [11]): 14.5 days

Compound: CS(=O)(=O)CS(=O)(=O)OCCCl [clomesone]
- antineoplastic activity (in words) [12]: excellent antineoplastic activity
